# Where a SMILES comes first, the peptide text is derived from it.
# Assays:
# [1] = pH of AQ4N salts in aqueous solution; type: physicochemical; details: 1.4 mM in water; in Table 4 the label is the acid whose AQ4N disalt was measured
# Method: Stock solutions of individual AQ4N salts were prepared by transferring about 1 mg, accurately weighed, and diluting with water to obtain solutions of 1.4 mM. The solution was vortexed for 3 min using a Fisons WhirlMixer™ (Loughborough, Leicestershire, UK). All AQ4N salt solutions were prepared on the same day as determination of the pH value of the solutions, which was done using a digital pH meter (calibrated at 21±1° C. with standard buffers of pH 7.00 and 4.00 from BDH (UK).
# [2] = cited from earlier work; for pKa at 25° C. (pKa1): Table 1, pKa1; for pKa at 25° C.: Table 1, pKa index not given; for pKa1 of acid used to prepare AQ4N disalt: value of the free acid, from IUPAC Handbook of Pharmaceutical Salts
# [3] = Degradation of AQ4N dihydrochloride in solution at 40° C.: accumulation of AQMN (HPLC); type: physicochemical; details: for AQMN increase per day: 14 days, % w.r.t. AQ4N
# Method: The degradation of AQ4N was investigated using 5 mg/ml solutions of AQ4N at a pH of 2.4, 4.5 and 6.8, which equated to water, 20 mM sodium acetate buffer and 20 mM sodium orthophosphate buffer, respectively. The primary degradation pathway of AQ4N is its conversion to AQMN. The increase in AQMN concentration in 5 mg/ml solutions incubated at 40° C. over an intermediate time period (14 days) is shown in FIG. 3.
# The effect of pH on the stability of AQ4N was determined by investigating AQ4N degradation in different solutions. The solutions chosen were again distilled water, 20 mM sodium acetate buffer (pH=4) and 20 mM sodium phosphate buffer (pH=7). After preparation of the 5 mg/ml AQ4N buffered solutions the pH was corrected to the required pH of the buffer. The final pHs were 2.4, 4.5 and 6.8 for the distilled water, 20 mM sodium acetate buffer and 20 mM sodium phosphate buffer, respectively. The samples were incubated at 40° C. and sampled at regular intervals. Assay was carried out by sample dilution followed by HPLC analysis.
compound,measurement,setting,value
"CC(O)C(=O)O (racemic) [Lactic, Lactic acid]",measured pH of AQ4N di-salt solutions (1.4 mM),[1],3.5
"CC(CC(=O)O)(CC(=O)O)C(=O)O [2-Methylpropane-1,2,3-triscarboxylic]",pKa at 25° C. (pKa1),[2],3.53 (pKa1)
C[N+](C)([O-])CCNc1ccc(NCC[N+](C)(C)[O-])c2c1C(=O)c1c(O)ccc(O)c1C2=O.Cl.Cl [AQ4N dihydrochloride],AQMN increase per day,"[3]; 20 mM sodium acetate buffer, pH 4.5, 5 mg/ml solution",0.19%
same,AQMN increase per day,"[3]; 20 mM sodium orthophosphate buffer (PO4), pH 6.8, 5 mg/ml solution",0.02%
same,AQMN increase per day,"[3]; H2O, pH 2.4, 5 mg/ml solution",0.84%
same,AQMN increase per month,"[3]; phosphate buffer, 5 mg/ml solution, 63 days",0.6%
same,measured pH of AQ4N di-salt solutions (1.4 mM),[1],2.4
"CC(=O)O [Acetic, acetic acid]",measured pH of AQ4N di-salt solutions (1.4 mM),[1],3.8
O=C1CC(=O)NC(=O)N1 [Barbituric],pKa at 25° C.,[2],3.98
"O=C(O)c1cccc(C(=O)O)c1C(=O)O [Benzene-1,2,3-tricarboxylic (hemimellitic)]",pKa at 25° C. (pKa1),[2],2.98 (pKa1)
"O=C(O)c1cc(C(=O)O)cc(C(=O)O)c1 [Benzene-1,3,5-tricarboxylic (trimesic)]",pKa at 25° C. (pKa1),[2],3.16 (pKa1)
O=C(O)c1cc(C(=O)O)c(C(=O)O)c(C(=O)O)c1C(=O)O [Benzenepentacarboxylic],pKa at 25° C. (pKa1),[2],2.34 (pKa1)
"O=S(=O)(O)c1ccccc1 [Benzenesulfonic, benzenesulfonic acid]",measured pH of AQ4N di-salt solutions (1.4 mM),[1],2.5
same,pKa1 of acid used to prepare AQ4N disalt,[2],−2.5
OCCN(CCO)C(CO)(CO)CO [Bis(2-hydroxyethyl)iminotris(hydroxymethyl)methane],pKa at 25° C.,[2],6.46
COc1cc2c(cc1OC)[C@@]13CCN4CC5=CCO[C@H]6CC(=O)N2[C@H]1[C@H]6[C@H]5C[C@H]43.O.O.O.O [Brucine tetrahydrate],pKa at 25° C. (pKa1),[2],2.30 (pKa1)
"O=C(O)CC(O)(CC(=O)O)C(=O)O [Citric, citric acid]",measured pH of AQ4N di-salt solutions (1.4 mM),[1],3.3
"O=C(O)C(Cl)Cl [Dichloroacetic, dichloroacetic acid]",measured pH of AQ4N di-salt solutions (1.4 mM),[1],2.4
NCC(=O)NCC(=O)O [Glycylglycine] (H-Gly-Gly-OH),pKa at 25° C.,[2],3.06
"Cl [Hydrochloric, hydrochloric acid]",measured pH of AQ4N di-salt solutions (1.4 mM),[1],2.4
C=C(CC(=O)O)C(=O)O [Itaconic],pKa at 25° C. (pKa1),[2],3.84 (pKa1)
"O=C(O)/C=C\C(=O)O [Maleic, maleic acid]",measured pH of AQ4N di-salt solutions (1.4 mM),[1],2.6
O=C(O)CC(O)C(=O)O (centres unmarked) [Malic],pKa at 25° C. (pKa1),[2],3.40 (pKa1)
same,pKa at 25° C. (pKa2),"[2]; Table 1, pKa2",5.05 (pKa2)
"O=C(O)CC(=O)O [Malonic, malonic acid]",measured pH of AQ4N di-salt solutions (1.4 mM),[1],2.8
O=C(O)c1ccccc1C(=O)O [Phthalic],pKa at 25° C.,[2],2.90
"O=C(O)CCCCCC(=O)O [Pimelic, pimelic acid]",measured pH of AQ4N di-salt solutions (1.4 mM),[1],3.8
same,pKa at 25° C.,[2],4.48
same,pKa1 of acid used to prepare AQ4N disalt,[2],4.48
C/C=C/C=C/C(=O)O [Sorbic],pKa at 25° C.,[2],4.76
"O=C(O)C(O)C(O)C(=O)O (centres unmarked) [Tartaric, tartaric acid]",measured pH of AQ4N di-salt solutions (1.4 mM),[1],2.8
AQ4N di-acetate [Example 14],measured pH of AQ4N di-salt solutions (1.4 mM),[1],3.8
AQ4N di-benzenesulfonate [Example 6],measured pH of AQ4N di-salt solutions (1.4 mM),[1],2.4
AQ4N di-dichloroacetate [Example 7],measured pH of AQ4N di-salt solutions (1.4 mM),[1],2.5
AQ4N di-pimelate [Example 13],measured pH of AQ4N di-salt solutions (1.4 mM),[1],3.8

# Reference: US20050256188A1, “Formulations of anthraquinone derivatives” (priority 2002, published 2005)
